{"source": "patent US20100028849A1", "about": "“NOVEL PROCESS FOR DEVITALIZED/ACELLULAR TISSUE FOR TRANSPLANTATION” (priority 2006, published 2010)", "key": {"S. epidermidis": {"test_system": "S. epidermidis", "assay": "antimicrobial ability of ozone in aqueous solution, plating on agar (CFU)", "assay_type": "cell-based", "conditions": "5-10 ppm ozone in sterile water; for Final (CFU/mL): initial inoculum 2.1 × 10^8 CFU/mL", "experimental": "S. epidermidis was subjected to 5-10 ppm ozone in sterile water, followed by plating the organisms onto agar plates and placing the plates in a 37° C. incubator."}, "[1]": {"test_system": "human skin (epidermis and dermis intact) tissue cells", "assay": "alamarBlue viability assay of human skin exposed to ozone", "assay_type": "cell-based", "conditions": "60 minutes of ozone exposure in sterile normal saline with agitation; 5-20 ppm, 4 C to 25 C", "excerpt": "This example measured the effect of ozone on human skin. Human skin (epidermis and dermis intact) was exposed to ozone for various lengths of time. Ozone was pumped through an aqueous solution (sterile normal saline) obtaining levels between 5 and 20 ppm at temperatures between 4 C and 25 C. An alamarBlue™ viability assay, which is supplied by Invitrogen Corporation of Carlsbad, Calif., was used to quantify viability of the tissue cells. The alamarBlue™ dye is reduced by metabolic intermediates within a cell; reduction of the dye is then measured spectrophotometrically.\nTo perform the alamarBlue™ assay, human skin was sectioned into 6 mm diameter discs and placed individually into wells of a 24-well tissue culture plate. To each sample, 10% alamarBlue™ reagent in RPMI-1640 was added. The plate was incubated at 37° C. on an orbital shaker for 4 hours. Each well was then sampled in triplicate to a 96-well assay plate. The absorbance of the plate was measured at 600 nm and 570 nm, where the […]. The absorbencies were then used to calculate the percent reduction of alamarBlue™ dye, as follows: […]"}}}
{"compound": "O=[O+][O-]", "note": "[Ozone, ozone]", "values": [{"measurement": "Log Reduction", "setting": "S. epidermidis; 2.5 min exposed to ozone", "value": 8, "unit": "log"}, {"measurement": "Final (CFU/mL)", "setting": "S. epidermidis; 2.5 min exposed to ozone", "value": 0, "unit": "CFU/mL"}, {"measurement": "Log Reduction", "setting": "S. epidermidis; 5 min exposed to ozone", "value": 8, "unit": "log"}, {"measurement": "Final (CFU/mL)", "setting": "S. epidermidis; 5 min exposed to ozone", "value": 0, "unit": "CFU/mL"}, {"measurement": "Log Reduction", "setting": "S. epidermidis; 7.5 min exposed to ozone", "value": 8, "unit": "log"}, {"measurement": "Final (CFU/mL)", "setting": "S. epidermidis; 7.5 min exposed to ozone", "value": 0, "unit": "CFU/mL"}, {"measurement": "Log Reduction", "setting": "S. epidermidis; 10 min exposed to ozone", "value": 8, "unit": "log"}, {"measurement": "Final (CFU/mL)", "setting": "S. epidermidis; 10 min exposed to ozone", "value": 0, "unit": "CFU/mL"}, {"measurement": "Log Reduction", "setting": "S. epidermidis; 20 min exposed to ozone", "value": 8, "unit": "log"}, {"measurement": "Final (CFU/mL)", "setting": "S. epidermidis; 20 min exposed to ozone", "value": 0, "unit": "CFU/mL"}, {"measurement": "log reduction in colony forming units (CFU)", "setting": "S. epidermidis; at 2.5 minutes or longer, total kill of microbes", "value": 8, "unit": "log"}, {"measurement": "viability of the tissue cells (percent reduction of alamarBlue dye)", "setting": "[1]", "value": "death of the cells within the skin"}]}
